target: T1, human TSHR (Homo sapiens, UniProt P16473); experiment: Measurement of antagonist activity using TSH-induced cAMP production in human TSHR-stably expressing CHO cells; format: cell-based; settings: human TSH final concentration 50 ng/mL
T1 construct: expressed in transfected cells
Description: Measurement of Antagonist Activity Using TSH-induced cAMP Production in Human TSHR-stably Expressing CHO Cells as an Indicator
A gene sequence of human TSHR (reference number NM_000369.2) was inserted into a multiple cloning site of pcDNA3.1(+). The prepared plasmid vector was introduced into CHO cells by a lipofection method to establish human TSHR stably expressing CHO cells. The obtained cells were seeded in a poly-D-lysine-coated 96-well plate at 5 x 10^4 cells/well, and cultured for 1 day in F12 medium containing 10% FBS, 400 µg/mL G418, 50 U/mL penicillin, and 50 µg/mL streptomycin under conditions of 37°C and 5% CO2. After removing a medium, the cells were washed twice with 100 µL per well of an assay buffer (Hanks' Balanced Salt Solution containing 20 mM HEPES and 1 mM IBMX). 30 µL of an assay buffer containing a test compound was added to a well, and the mixture was incubated at room temperature for 15 minutes. Next, 30 µL of an assay buffer containing human TSH (R&D Systems, Inc., final concentration 50 ng/mL) was added, and the mixture was incubated at 37°C for 1 hour. The supernatant was removed, and Lysis and Detection Buffer 2 (Cisbio) was added to prepare a cell lysate by incubating at room temperature for 1 hour. According to the instructions for use of a cAMP Gs HiRange kit (Cisbio), a cell lysate was reacted with d2-labeled cAMP and an anti-cAMP Europium Cryptate labeled antibody (Cisbio) in a 384-well white microplate. Next, a fluorescence intensity ratio (measurement wavelengths 665 nm/620 nm) was measured using a multiplate reader (PHERAstar FSX, BMG LABTECH Japan). A fluorescence intensity ratio of each sample was converted into a cAMP content using a standard curve. A cAMP content was converted into a percentage of a control value, and a cAMP production rate was calculated. Using Prism (Graph Pad Software Inc.), a cAMP production rate was plotted against a test compound concentration, and an IC50 value was calculated. The IC50 of each test compound is shown in the above tables. In the tables, IC50 < 3.0 µM was denoted as A, and 3.0 µM ≤ IC50 < 30 µM was denoted as B. The case where activity was observed but an IC50 value could not be calculated was denoted as C.

T1 sequence (P16473 21-764): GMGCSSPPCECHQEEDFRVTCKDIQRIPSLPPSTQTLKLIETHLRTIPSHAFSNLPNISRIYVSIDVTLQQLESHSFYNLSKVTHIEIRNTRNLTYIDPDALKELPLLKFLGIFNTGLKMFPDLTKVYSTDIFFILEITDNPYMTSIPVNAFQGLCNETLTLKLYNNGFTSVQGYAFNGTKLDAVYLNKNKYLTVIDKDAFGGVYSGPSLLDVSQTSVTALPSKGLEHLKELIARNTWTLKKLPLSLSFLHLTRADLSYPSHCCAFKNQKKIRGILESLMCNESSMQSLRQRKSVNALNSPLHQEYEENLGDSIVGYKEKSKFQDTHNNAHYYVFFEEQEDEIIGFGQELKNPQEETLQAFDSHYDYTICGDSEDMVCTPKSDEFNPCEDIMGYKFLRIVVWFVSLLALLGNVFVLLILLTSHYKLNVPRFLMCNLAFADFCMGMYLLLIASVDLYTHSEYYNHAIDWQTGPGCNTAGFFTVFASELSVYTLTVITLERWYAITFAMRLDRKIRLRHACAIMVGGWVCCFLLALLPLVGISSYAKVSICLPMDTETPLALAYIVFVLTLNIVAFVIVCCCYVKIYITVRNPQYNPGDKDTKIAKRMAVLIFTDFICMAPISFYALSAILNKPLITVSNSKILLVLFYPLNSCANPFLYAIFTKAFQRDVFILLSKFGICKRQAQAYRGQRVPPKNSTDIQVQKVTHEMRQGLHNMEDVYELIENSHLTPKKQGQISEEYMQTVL

IC50	Compound
< 3 µM	NC(=O)N[C@@H]1CC[C@@H](C(F)F)N(Cc2cc(C(F)(F)F)ccc2F)C1=O [Example A-17, 1-((3R,6S)-6-(difluoromethyl)-1-(2-fluoro-5-(trifluoromethyl)benzyl)-2-oxopiperidin-3-yl)urea]
< 3 µM	NC(=O)N[C@@H]1Cc2ccc(C(F)F)cc2N(Cc2cc(C(F)(F)F)ccc2F)C1=O [Example C-10, (R)-1-(7-(difluoromethyl)-1-(2-fluoro-5-(trifluoromethyl)benzyl)-2-oxo-1,2,3,4-tetrahydroquinolin-3-yl)urea]
< 3 µM	COC[C@@H]1CC[C@@H](NC(N)=O)C(=O)N1Cc1cc(C(F)(F)F)ccc1F [Example D-6, 1-((3R,6S)-1-(2-fluoro-5-(trifluoromethyl)benzyl)-6-(methoxymethyl)-2-oxopiperidin-3-yl)urea]
> 30 µM	NC(=O)N[C@@H]1Cc2ccccc2N(CCCc2ccccc2)C1=O [Example C-26, (R)-1-(2-oxo-1-(3-phenylpropyl)-1,2,3,4-tetrahydroquinolin-3-yl)urea]
3 to 30 µM	Cc1nc2c(s1)N(Cc1cc(C(F)(F)F)ccc1F)C(=O)[C@H](NC(N)=O)C2 [Example F-6, (R)-1-(4-(2-fluoro-5-(trifluoromethyl)benzyl)-2-methyl-5-oxo-4,5,6,7-tetrahydrothiazolo[5,4-b]pyridin-6-yl)urea]
> 30 µM	CC(c1cc(C(F)(F)F)ccc1F)N1C(=O)[C@H](NC(N)=O)CC[C@H]1C(F)(F)F (stereo partly drawn) [Example A-22, 1-((3R,6S)-1-(1-(2-fluoro-5-(trifluoromethyl)phenyl)ethyl)-2-oxo-6-(trifluoromethyl)piperidin-3-yl)urea]
< 3 µM	CC(C)(C)OC(=O)NCC[C@@H]1C[C@H](NC(N)=O)C(=O)N(Cc2cc(C(F)(F)F)ccc2F)C1 (relative stereo) [Example A-19, tert-butyl (2-((3R*,5S*)-1-(2-fluoro-5-(trifluoromethyl)benzyl)-6-oxo-5-ureidopiperidin-3-yl)ethyl)carbamate]
< 3 µM	NC(=O)N[C@@H]1Cc2ccc(F)cc2N(Cc2cc(C(F)(F)F)cc(Cl)c2F)C1=O [Example C-21, (R)-1-(1-(3-chloro-2-fluoro-5-(trifluoromethyl)benzyl)-7-fluoro-2-oxo-1,2,3,4-tetrahydroquinolin-3-yl)urea]
3 to 30 µM	NC(=O)N[C@@H]1Cc2ccncc2N(Cc2cccc(C(F)(F)F)c2)C1=O [Example C-23, (R)-1-(2-oxo-1-(3-(trifluoromethyl)benzyl)-1,2,3,4-tetrahydro-1,7-naphthyridin-3-yl)urea]
> 30 µM	NC(=O)N[C@@H]1Cc2ccc(C(=O)O)cc2N(Cc2cc(C(F)(F)F)ccc2F)C1=O [Example C-29, (R)-1-(2-fluoro-5-(trifluoromethyl)benzyl)-2-oxo-3-ureido-1,2,3,4-tetrahydroquinolin-7-carboxylic acid]
> 30 µM	CN(C)C[C@@H]1CC[C@@H](NC(N)=O)C(=O)N1Cc1cc(C(F)(F)F)ccc1F [Example D-9, 1-((3R,6S)-6-((dimethylamino)methyl)-1-(2-fluoro-5-(trifluoromethyl)benzyl)-2-oxopiperidin-3-yl)urea]
< 3 µM	Cc1ncc(NC(N)=O)c(=O)n1Cc1cc(C(F)(F)F)cc(Cl)c1F [Example B-8, 1-(1-(3-chloro-2-fluoro-5-(trifluoromethyl)benzyl)-2-methyl-6-oxo-1,6-dihydropyrimidin-5-yl)urea]
< 3 µM	Cc1ccc2c(c1)N(Cc1cccc(C(F)(F)F)c1)C(=O)[C@H](NC(N)=O)C2 [Example C-6, (R)-1-(7-methyl-2-oxo-1-(3-(trifluoromethyl)benzyl)-1,2,3,4-tetrahydroquinolin-3-yl)urea]
> 30 µM	CO[C@@H](C)C(=O)N[C@@H]1CC[C@@H](C(F)(F)F)N(Cc2cc(C(F)(F)F)ccc2F)C1=O [Example A-25, (S)-N-((3R,6S)-1-(2-fluoro-5-(trifluoromethyl)benzyl)-2-oxo-6-(trifluoromethyl)piperidin-3-yl)-2-methoxypropanamide]
< 3 µM	NC(=O)Nc1ccc(CN2CCCC2)n(Cc2cc(C(F)(F)F)cc(Cl)c2F)c1=O [Example E-4, 1-(1-(3-chloro-2-fluoro-5-(trifluoromethyl)benzyl)-2-oxo-6-(pyrrolidin-1-ylmethyl)-1,2-dihydropyridin-3-yl)urea]
< 3 µM	NC(=O)N[C@@H]1Cc2ccsc2N(Cc2cc(C(F)(F)F)ccc2F)C1=O [Example F-4, (R)-1-(7-(2-fluoro-5-(trifluoromethyl)benzyl)-6-oxo-4,5,6,7-tetrahydrothieno[2,3-b]pyridin-5-yl)urea]

IC50	Compound
> 30 µM	NC(=O)N[C@@H]1Cc2ccccc2N(CC2CCCCC2)C1=O [Example C-27, (R)-1-(1-(cyclohexylmethyl)-2-oxo-1,2,3,4-tetrahydroquinolin-3-yl)urea]
3 to 30 µM	C[C@@H]1CC[C@@H](NC(N)=O)C(=O)N1Cc1cc(C#CC2CC2)ccc1F (relative stereo) [Example A-10, 1-((3R^*,6R^*)-1-(5-(cyclopropylethynyl)-2-fluorobenzyl)-6-methyl-2-oxopiperidin-3-yl)urea]
< 3 µM	NC(=O)N[C@@H]1Cc2ccccc2N(Cc2cccc3c2OC(F)(F)O3)C1=O [Example C-5, (R)-1-(1-((2,2-difluorobenzo[d][1,3]dioxol-4-yl)methyl)-2-oxo-1,2,3,4-tetrahydroquinolin-3-yl)urea]
< 3 µM	NC(=O)N[C@@H]1CC[C@@H](C(F)(F)F)N(Cc2cc(OC(F)(F)C(F)F)ccc2F)C1=O [Example A-16, 1-((3R,6S)-1-(2-fluoro-5-(1,1,2,2-tetrafluoroethoxy)benzyl)-2-oxo-6-(trifluoromethyl)piperidin-3-yl)urea]
> 30 µM	CN(C)C(=O)C[C@@H]1CC[C@@H](NC(N)=O)C(=O)N1Cc1cc(C(F)(F)F)ccc1F (relative stereo) [Example D-10, 2-((2S^*,5R^*)-1-(2-fluoro-5-(trifluoromethyl)benzyl)-6-oxo-5-ureidopiperidin-2-yl)-N,N-dimethylacetamide]
< 3 µM	NC(=O)N[C@@H]1Cc2ccc(C(F)F)cc2N(Cc2cc(C(F)F)ccc2F)C1=O [Example C-14, (R)-1-(7-(difluoromethyl)-1-(5-(difluoromethyl)-2-fluorobenzyl)-2-oxo-1,2,3,4-tetrahydroquinolin-3-yl)urea]
< 3 µM	NC(=O)N[C@@H]1Cc2ccc(C(F)F)cc2N(Cc2cccc(C(F)(F)F)n2)C1=O [Example F-2, (R)-1-(7-(difluoromethyl)-2-oxo-1-((6-(trifluoromethyl)pyridin-2-yl)methyl)-1,2,3,4-tetrahydroquinolin-3-yl)urea]
3 to 30 µM	NC(=O)N[C@@H]1Cc2ccccc2N(CCc2ccccc2)C1=O [Example C-25, (R)-1-(2-oxo-1-phenethyl-1,2,3,4-tetrahydroquinolin-3-yl)urea]
< 3 µM	NC(=O)N[C@@H]1Cc2ccc(CO)cc2N(Cc2cc(C(F)F)ccc2F)C1=O [Example C-16, (R)-1-(1-(5-(difluoromethyl)-2-fluorobenzyl)-7-(hydroxymethyl)-2-oxo-1,2,3,4-tetrahydroquinolin-3-yl)urea]
< 3 µM	CCOC[C@@H]1CC[C@@H](NC(N)=O)C(=O)N1Cc1cc(C(F)(F)F)ccc1F [Example D-7, 1-((3R,6S)-6-(ethoxymethyl)-1-(2-fluoro-5-(trifluoromethyl)benzyl)-2-oxopiperidin-3-yl)urea]
< 3 µM	NC(=O)N[C@@H]1CC[C@@H](C(F)(F)F)N(Cc2cc(C(F)F)ccc2F)C1=O [Example A-15, 1-((3R,6S)-1-(5-(difluoromethyl)-2-fluorobenzyl)-2-oxo-6-(trifluoromethyl)piperidin-3-yl)urea]
> 30 µM	COc1cccc(CN2C(=O)[C@H](NC(N)=O)Cc3ccccc32)c1 [Example C-3, (R)-1-(1-(3-methoxybenzyl)-2-oxo-1,2,3,4-tetrahydroquinolin-3-yl)urea]
< 3 µM	C[C@@H]1CC[C@@H](NC(N)=O)C(=O)N1Cc1cc(OCc2ccccc2)ccc1F (relative stereo) [Example A-11, 1-((3R^*,6R^*)-1-(5-(benzyloxy)-2-fluorobenzyl)-6-methyl-2-oxopiperidin-3-yl)urea]
3 to 30 µM	NC(=O)N[C@@H]1Cc2ccc(C(N)=O)cc2N(Cc2cc(C(F)(F)F)ccc2F)C1=O [Example C-30, (R)-1-(2-fluoro-5-(trifluoromethyl)benzyl)-2-oxo-3-ureido-1,2,3,4-tetrahydroquinolin-7-carboxamide]
3 to 30 µM	Cc1ccc(NC(=O)C(F)(F)F)c(=O)n1Cc1cc(C(F)(F)F)cc(Cl)c1F [Example E-8, N-(1-(3-chloro-2-fluoro-5-(trifluoromethyl)benzyl)-6-methyl-2-oxo-1,2-dihydropyridin-3-yl)-2,2,2-trifluoroacetamide]

— patent publication EP4818157A1, “N-SUBSTITUTED CYCLIC AMIDE COMPOUND” (Kissei Pharmaceutical Co., Ltd., priority 2023, dated 2025)
